Assay [1] relates to Plasmodium falciparum, NF54 (sensitive to all known drugs). As to the kind of experiment: In vitro assay, 3H-hypoxanthine incorporation, Plasmodium falciparum NF54. The format is cell-based. As to conditions: NF54 (CQ sensitive P. falciparum strain). How it is done: The compounds of the invention and standard compounds are tested in vitro against two standard parasite strains: Plasmodium falciparum, NF54 (sensitive to all known drugs) and Plasmodium falciparum, K1 (chloroquine and pyrimethamine resistant). Chloroquine diphosphate (Sigma C6628), artemisinin (Sigma 36159-3), artesunate (Mepha), atovaquone (GSK) and proguanil (Roche) are used as the standard drugs. The testing is carried out in 96-well plates (Costar™ 96-well microtiter plates).
Smears of the stock cultures of the two strains are prepared and the parasitemia for each culture is determined. Cultures with parasitemia lower than 2% are not used.
Stock compound solutions are prepared in DMSO at 10 mg/mL. If insoluble in DMSO, other solvents may be used according to the recommendations of the supplier. […]
The plates are harvested with a Betaplate™ cell harvester (Wallac, Zurich, Switzerland), which transfers the red blood cells onto a glass fiber filter and washes the filters with distilled water. The dried filters are inserted into a plastic foil with 10 mL of scintillation fluid and counted in a Betaplate™ liquid scintillation counter (Wallac, Zurich, Switzerland). The results are recorded as counts per minute (cpm) per well at each drug concentration.
Data is transferred into a graphic programme (e.g. EXCEL) and expressed as percentage of the untreated controls. […]

The test system of assay [2] is Plasmodium berghei, GFP ANKA strain. The experiment in a line: In vivo assay, P. berghei mouse model. As to conditions: read-out: ED50 in P. berghei mouse model. The protocol: The Plasmodium berghei, GFP ANKA strain described in B. Franke-Fayard et al., Mol. Biochem. Parasitol., 137(1), 23-33, 2004 is used. This strain is maintained in female NMRI mice (20-22 g). The mice are kept in Standard Macrolon cages type II under standard conditions at 22° C. and 60-70% relative humidity, on a diet of pellets (PAB45—NAFAG 9009, Provimi Kliba AG, CH-4303 Kaiseraugst, Switzerland) and water ad libitu. Chloroquine (Sigma C6628) and artemisinin (Sigma 36, 159-3) are used as the standard drugs.
Stock compound solutions are prepared in 100% DMSO (suspended) or a solution consisting of 70% Tween-80 (d=1.08 g/mL) and 30% ethanol (d=0.81 g/mL), followed by a 10-fold dilution in H2O. […]
On days 1, 2 and 3 (24, 48 and 72 hours post-infection), the experimental groups are treated with a single daily dose per oral dosing (p.o). […] The dosage is determined by a preliminary toxicity test. […]
On day 4, 24 hours after the last drug treatment, 1 μL tail blood is taken and dissolved in 1 mL PBS buffer. Parasitaemia is determined with a FACScan (Becton Dickinson) by counting 100,000 red blood cells. The difference between the mean value of the control group and those of the experimental groups is calculated and expressed as a percentage relative to the control group (=activity). […] The survival of the animals is monitored for up to 30 days. […]

The values below come from patent US8053442B2, “Organic compounds” (Novartis AG, priority 2008, dated 2011).

By IC50 is commonly meant the concentration that inhibits the measured activity by half. Low readings indicate greater potency in that assay, high ones weaker potency in that assay. By ED50 is commonly meant the dose that gives a 50% effect, or the effect in half of the subjects. Consider `C[C@@H]1Cc2c([nH]c3cc(Cl)c(F)cc23)[C@]2(N1)C(=O)Nc1ccc(Cl)cc12` [Example 50, (1S,3R)-5′,7-Dichloro-6-fluoro-3-methyl-2,3,4,9-tetrahydrospiro[β-carboline-1,3′-indol]-2′(1′H)-one], for which, in assay [1], the IC50 was found to be 0.9 nM. In addition, the ED50 in assay [2] is 1.2 mg/kg.
As for `C[C@H]1Cc2c([nH]c3ccc(Cl)cc23)[C@@]2(N1)C(=O)Nc1ccc(Cl)cc12` [Example 62, (1R,3S)-5′,6-Dichloro-3-methyl-2,3,4,9-tetrahydrospiro[β-carboline-1,3′-indol]-2′(1′H)-one], the IC50 in assay [1] stood at 3.4 nM. In assay [2], the ED50 was 1.5 mg/kg.
